This test deals with Replicase polyprotein 1ab (Severe acute respiratory syndrome coronavirus 2, UniProt P0DTD1).

Consider one compound from ChEMBL document CHEMBL5136972, “Targeting SARS-CoV-2 Proteases and Polymerase for COVID-19 Treatment: State of the Art and Future Opportunities” (J Med Chem, 2022).

In general, Ki refers to a measure of affinity in units of concentration, obtained from inhibition or displacement. A higher Ki goes with lower affinity.

Each structure is given as a SMILES string.

The compound `Cc1cc(C(=O)N[C@@H](C)C(=O)N[C@H](C(=O)N[C@@H](CC(C)C)C(=O)N[C@H](/C=C/C(=O)OCc2ccccc2)C[C@@H]2CCNC2=O)C(C)C)no1` gave a Ki of 9 µM.
